For data set [1], the system named is non-differentiated Caco-2 cells. As for the experimental part: Caco-2 cells were seeded on coverslips treated with polylysine at a concentration of approximately 2.5 - 5x10^5 cells/ml and grown to confluence. Cells were washed once with PBS without Ca^2+, Mg^2+. 1-2 ml of PBS w/o Ca^2+, Mg^2+ containing antisense oligonucleotides +/- enhancers was added and cells were incubated for 30 min at 37°C. Variations to this protocol by pre-incubating cells with enhancers (40min), washing with PBS w/o Ca^2+, Mg^2+ and then incubating with antisense oligonucleotides for 30min were also analysed.
Two different FITC labelled antisense oligonucleotides were used: FITC-labelled ELNG05 (5'-[…]-3'; complementary to a sequence in the human BCR-Abl mRNA) and FITC-labelled S-PTH-05 (5'-[…]-3', complementary to sequence 153-170 of the human HPT1 receptor mRNA). […] The uptake of antisense oligonucleotides was also analysed in the absence of enhancers for variable periods of time (30min - 60min). Following incubation, cells were washed twice with PBS w/o Ca^2+, Mg^2+ and stained with 1µg/ml TexasRed-DHPE (dihexadecanoylglycerophosphoethanolamine, Molecular Probe T-1395) for 15min at 37°C, washed extensively and fixed with paraformaldeyde pH shift (Barcallo, 1995) and mounted for analysis by confocal laser scanning microscopy (CLSM).
After two washes with PBS w/o Ca^2+ and Mg^2+, the cells were incubated with 2ml of FITC-antisense oligonucleotide (ELNG05) at a concentration of 10µM in PBS w/o Ca^2+ and Mg^2+ and incubated at 37°C for 30min.
Caco-2 cells were incubated with 1ml of antisense +/- enhancers in PBS w/o Ca^2+ and Mg^2+ and incubated for 30min at 37°C. Two different fluorescently labelled antisense oligonucleotides were used in these experiments at a concentration of 10µM: ELNG05 (antisense to BCR-Ab1) and S-PTH-05 (antisense to HPT1 receptor). […] The uptake of antisense was also analysed in the absence of enhancers for 30min and 60min as control.

The next data set relates to Caco-2 cells. Conditions: cationic lipid (lipofectamine): plasmid DNA complex alone set at 100%; β-galactosidase 24 hours post transfection; enhancer concentration not given in the sentence (C8 30 or 5mM, C10 5 or 1mM tested).

Structures are written as SMILES. Read-outs that look alike come from different tables or passages of the source.

The text below walks through data of patent publication EP1173217B1, “ENHANCED DELIVERY OF NUCLEIC ACID-BASED DRUGS” (Merrion Research I Limited, priority 1999, dated 2000).

For `CCCCCCCCCC(=O)[O-].[Na+]` [C10, sodium caprate], the “cell permeation / intracellular staining with TexasRed-DHPE and FITC-oligonucleotide (CLSM)” value in data set [1] (Experiment a, C10 at 10-13mM pre-incubated 40min, then 10µM FITC-ELNG05 30min) was “permeated completely the cells”. Moreover, in data set [1] (Experiment b, C10 2.6 mM together with 10µM antisense, 30min), the “uptake of antisense (CLSM)” value was “did not increase the uptake of antisense”. Further, the “effect on Caco-2 cell adherence” value in data set [1] (Experiment b, C10 13mM, 30min) is reported as “loss of adherence of Caco-2 cells”. For the same compound, the “staining of cells (CLSM)” value is “only punctate staining, similar to the control” in data set [1] (Experiment c, C10 8mM with 10µM antisense, 30min) and “completely stained” in data set [1] (Experiment c, C10 10mM with 10µM antisense, 30min). In addition, in data set [1] (Experiment c, C10 between 13mM and 8mM, 30min), the effect on cells entry was “destruction of cells”. Also, the efficiency of transfection in the data set on Caco-2 cells is given as 245%.
